Values after ≈ are worked out from the molar mass of the structure shown.
What was measured:
Format in all cases: functional
[1] = test system: Bacteroides caccae; assay: Antimicrobial activity against Bacteroides caccae isolates by agar dilution method
[2] = test system: Bacteroides caccae; assay: Antimicrobial activity against Bacteroides caccae assessed as percent resistant isolates
[3] = test system: Bacteroides ovatus; assay: Antimicrobial activity against Bacteroides ovatus isolates by agar dilution method
[4] = test system: Parabacteroides merdae; assay: Antimicrobial activity against Bacteroides merdae isolates by agar dilution method
[5] = test system: Parabacteroides merdae; assay: Antimicrobial activity against Bacteroides merdae assessed as percent resistant isolates
[6] = test system: Bacteroides uniformis; assay: Antimicrobial activity against Bacteroides uniformis isolates by agar dilution method
[7] = test system: Bacteroides fragilis; assay: Antimicrobial activity against Bacteroides fragilis assessed as percent resistant isolates
[8] = test system: Bacteroides stercoris; assay: Antimicrobial activity against Bacteroides stercoris assessed as percent resistant isolates
[9] = test system: Bacteroides eggerthii; assay: Antimicrobial activity against Bacteroides eggerthii isolates by agar dilution method
[10] = test system: Parabacteroides distasonis; assay: Antimicrobial activity against Bacteroides distasonis assessed as percent resistant isolates
[11] = test system: Bacteroides ovatus; assay: Antimicrobial activity against Bacteroides ovatus assessed as percent resistant isolates
[12] = test system: Phocaeicola vulgatus; assay: Antimicrobial activity against Bacteroides vulgatus isolates by agar dilution method
[13] = test system: Bacteroides fragilis; assay: Antimicrobial activity against Bacteroides fragilis isolates by agar dilution method
[14] = test system: Bacteroides thetaiotaomicron; assay: Antimicrobial activity against Bacteroides thetaiotaomicron isolates by agar dilution method
[15] = test system: Parabacteroides distasonis; assay: Antimicrobial activity against Bacteroides distasonis isolates by agar dilution method
[16] = test system: Bacteroides eggerthii; assay: Antimicrobial activity against Bacteroides eggerthii assessed as percent resistant isolates
[17] = test system: Bacteroides uniformis; assay: Antimicrobial activity against Bacteroides uniformis assessed as percent resistant isolates
[18] = test system: Bacteroides thetaiotaomicron; assay: Antimicrobial activity against Bacteroides thetaiotaomicron assessed as percent resistant isolates
[19] = test system: Phocaeicola vulgatus; assay: Antimicrobial activity against Bacteroides vulgatus assessed as percent resistant isolates
[20] = test system: Bacteroides stercoris; assay: Antimicrobial activity against Bacteroides stercoris isolates by agar dilution method

COC1(NC(=O)Cc2cccs2)C(=O)N2C(C(=O)O)=C(COC(N)=O)CS[C@@H]21 (single isomer, unassigned) [CEFOXITIN]
MIC [1]: 17.6 µg/mL (≈ 41.2 µM)
MIC90 [1]: 64 µg/mL (≈ 150 µM)
Activity [2]: 10.9%
MIC [3]: 27.2 µg/mL (≈ 63.5 µM)
MIC90 [3]: 64 µg/mL (≈ 150 µM)
MIC [4]: 17.6 µg/mL (≈ 41.2 µM)
MIC90 [4]: 64 µg/mL (≈ 150 µM)
Activity [5]: 10.9%
MIC [6]: 12.9 µg/mL (≈ 30.2 µM)
MIC90 [6]: 32 µg/mL (≈ 74.9 µM)
Activity [7]: 5.2%
Activity [8]: 10.9%
MIC [9]: 17.6 µg/mL (≈ 41.2 µM)
MIC90 [9]: 64 µg/mL (≈ 150 µM)
Activity [10]: 29.9%
Activity [11]: 17.2%
MIC [12]: 10.5 µg/mL (≈ 24.6 µM)
MIC90 [12]: 32 µg/mL (≈ 74.9 µM)
MIC [13]: 15.4 µg/mL (≈ 36.1 µM)
MIC90 [13]: 32 µg/mL (≈ 74.9 µM)
MIC [14]: 29.5 µg/mL (≈ 69 µM)
MIC90 [14]: 64 µg/mL (≈ 150 µM)
MIC [15]: 34.2 µg/mL (≈ 80 µM)
MIC90 [15]: 128 µg/mL (≈ 299 µM)
Activity [16]: 10.9%
Activity [17]: 7.5%
Activity [18]: 16.8%
Activity [19]: 0.3%
MIC [20]: 17.6 µg/mL (≈ 41.2 µM)
MIC90 [20]: 64 µg/mL (≈ 150 µM)

COc1c(N2C[C@@H]3CCCN[C@@H]3C2)c(F)cc2c(=O)c(C(=O)O)cn(C3CC3)c12 [MOXIFLOXACIN]
MIC [1]: 3.85 µg/mL (≈ 9.59 µM)
MIC90 [1]: 32 µg/mL (≈ 79.7 µM)
Activity [2]: 36.4%
MIC [3]: 5.49 µg/mL (≈ 13.7 µM)
MIC90 [3]: 32 µg/mL (≈ 79.7 µM)
MIC [4]: 3.85 µg/mL (≈ 9.59 µM)
MIC90 [4]: 32 µg/mL (≈ 79.7 µM)
Activity [5]: 36.4%
MIC [6]: 5.57 µg/mL (≈ 13.9 µM)
MIC90 [6]: 32 µg/mL (≈ 79.7 µM)
Activity [7]: 27.3%
Activity [8]: 36.4%
MIC [9]: 3.85 µg/mL (≈ 9.59 µM)
MIC90 [9]: 32 µg/mL (≈ 79.7 µM)
Activity [10]: 29.2%
Activity [11]: 38.3%
MIC [12]: 7.92 µg/mL (≈ 19.7 µM)
MIC90 [12]: 64 µg/mL (≈ 159 µM)
MIC [13]: 1.83 µg/mL (≈ 4.56 µM)
MIC90 [13]: 8 µg/mL (≈ 19.9 µM)
MIC [14]: 3.71 µg/mL (≈ 9.24 µM)
MIC90 [14]: 32 µg/mL (≈ 79.7 µM)
MIC [15]: 2.32 µg/mL (≈ 5.78 µM)
MIC90 [15]: 16 µg/mL (≈ 39.9 µM)
Activity [16]: 36.4%
Activity [17]: 38.6%
Activity [18]: 26.3%
Activity [19]: 54.7%
MIC [20]: 3.85 µg/mL (≈ 9.59 µM)
MIC90 [20]: 32 µg/mL (≈ 79.7 µM)

C[C@@H](O)[C@H]1C(=O)N2C(C(=O)O)=C(SC3CNC(C(=O)Nc4cccc(C(=O)O)c4)C3)[C@H](C)[C@H]12 (single isomer, unassigned) [ERTAPENEM]
MIC [1]: 1.03 µg/mL (≈ 2.17 µM)
MIC90 [1]: 4 µg/mL (≈ 8.41 µM)
Activity [2]: 0.5%
MIC [3]: 1.58 µg/mL (≈ 3.32 µM)
MIC90 [3]: 4 µg/mL (≈ 8.41 µM)
MIC [4]: 1.03 µg/mL (≈ 2.17 µM)
MIC90 [4]: 4 µg/mL (≈ 8.41 µM)
Activity [5]: 0.5%
MIC [6]: 0.88 µg/mL (≈ 1.85 µM)
MIC90 [6]: 2 µg/mL (≈ 4.21 µM)
Activity [7]: 1.4%
Activity [8]: 0.5%
MIC [9]: 1.03 µg/mL (≈ 2.17 µM)
MIC90 [9]: 4 µg/mL (≈ 8.41 µM)
Activity [10]: 1.5%
Activity [11]: 0.6%
MIC [12]: 0.82 µg/mL (≈ 1.72 µM)
MIC90 [12]: 2 µg/mL (≈ 4.21 µM)
MIC [13]: 0.79 µg/mL (≈ 1.66 µM)
MIC90 [13]: 2 µg/mL (≈ 4.21 µM)
MIC [14]: 1.69 µg/mL (≈ 3.55 µM)
MIC90 [14]: 4 µg/mL (≈ 8.41 µM)
MIC [15]: 1.77 µg/mL (≈ 3.72 µM)
MIC90 [15]: 4 µg/mL (≈ 8.41 µM)
Activity [16]: 0.5%
Activity [17]: 0.5%
Activity [18]: 0.4%
Activity [19]: 0.3%
MIC [20]: 1.03 µg/mL (≈ 2.17 µM)
MIC90 [20]: 4 µg/mL (≈ 8.41 µM)

CCC[C@@H]1C[C@@H](C(=O)NC([C@H](C)Cl)[C@H]2O[C@H](SC)[C@H](O)[C@@H](O)[C@H]2O)N(C)C1 (single isomer, unassigned) [CLINDAMYCIN]
MIC [1]: 3.63 µg/mL (≈ 8.54 µM)
MIC90 [1]: 256 µg/mL (≈ 602 µM)
Activity [2]: 28.2%
MIC [3]: 5.89 µg/mL (≈ 13.9 µM)
MIC90 [3]: 256 µg/mL (≈ 602 µM)
MIC [4]: 3.63 µg/mL (≈ 8.54 µM)
MIC90 [4]: 256 µg/mL (≈ 602 µM)
Activity [5]: 28.2%
MIC [6]: 4.22 µg/mL (≈ 9.93 µM)
MIC90 [6]: 256 µg/mL (≈ 602 µM)
Activity [7]: 19.3%
Activity [8]: 28.2%
MIC [9]: 3.63 µg/mL (≈ 8.54 µM)
MIC90 [9]: 256 µg/mL (≈ 602 µM)
Activity [10]: 29.6%
Activity [11]: 33.4%
MIC [12]: 4.31 µg/mL (≈ 10.1 µM)
MIC90 [12]: 256 µg/mL (≈ 602 µM)
MIC [13]: 1.89 µg/mL (≈ 4.45 µM)
MIC90 [13]: 256 µg/mL (≈ 602 µM)
MIC [14]: 6.62 µg/mL (≈ 15.6 µM)
MIC90 [14]: 256 µg/mL (≈ 602 µM)
MIC [15]: 4.51 µg/mL (≈ 10.6 µM)
MIC90 [15]: 256 µg/mL (≈ 602 µM)
Activity [16]: 28.2%
Activity [17]: 28.9%
Activity [18]: 33.3%
Activity [19]: 35.3%
MIC [20]: 3.63 µg/mL (≈ 8.54 µM)
MIC90 [20]: 256 µg/mL (≈ 602 µM)

C[C@@H](O)[C@H]1C(=O)N2C(C(=O)O)=C(S[C@@H]3CN[C@H](C(=O)N(C)C)C3)[C@H](C)[C@H]12 [MEROPENEM]
MIC [1]: 0.4 µg/mL (≈ 1.04 µM)
MIC90 [1]: 1 µg/mL (≈ 2.61 µM)
Activity [2]: 0.5%
MIC [4]: 0.4 µg/mL (≈ 1.04 µM)
MIC90 [4]: 1 µg/mL (≈ 2.61 µM)
Activity [5]: 0.5%
MIC [6]: 0.41 µg/mL (≈ 1.07 µM)
MIC90 [6]: 1 µg/mL (≈ 2.61 µM)
Activity [7]: 1%
Activity [8]: 0.5%
MIC [9]: 0.4 µg/mL (≈ 1.04 µM)
MIC90 [9]: 1 µg/mL (≈ 2.61 µM)
Activity [10]: 1.1%
MIC [12]: 0.47 µg/mL (≈ 1.23 µM)
MIC90 [12]: 1 µg/mL (≈ 2.61 µM)
MIC [13]: 0.38 µg/mL (≈ 0.991 µM)
MIC90 [13]: 1 µg/mL (≈ 2.61 µM)
MIC [14]: 0.47 µg/mL (≈ 1.23 µM)
MIC90 [14]: 1 µg/mL (≈ 2.61 µM)
MIC90 [15]: 2 µg/mL (≈ 5.22 µM)
Activity [16]: 0.5%
Activity [17]: 0.5%
Activity [18]: 0.1%
Activity [19]: 0%
MIC [20]: 0.4 µg/mL (≈ 1.04 µM)
MIC90 [20]: 1 µg/mL (≈ 2.61 µM)

CN(C)c1cc(NC(=O)CNC(C)(C)C)c(O)c2c1C[C@H]1C[C@H]3[C@H](N(C)C)C(O)=C(C(N)=O)C(=O)[C@@]3(O)C(O)=C1C2=O [TIGECYCLINE]
MIC [1]: 1.51 µg/mL (≈ 2.58 µM)
MIC90 [1]: 8 µg/mL (≈ 13.7 µM)
Activity [2]: 7.2%
MIC [3]: 1.52 µg/mL (≈ 2.6 µM)
MIC90 [3]: 8 µg/mL (≈ 13.7 µM)
MIC [4]: 1.51 µg/mL (≈ 2.58 µM)
MIC90 [4]: 8 µg/mL (≈ 13.7 µM)
Activity [5]: 7.2%
MIC [6]: 0.77 µg/mL (≈ 1.31 µM)
MIC90 [6]: 4 µg/mL (≈ 6.83 µM)
Activity [7]: 5.1%
Activity [8]: 7.2%
MIC [9]: 1.51 µg/mL (≈ 2.58 µM)
MIC90 [9]: 8 µg/mL (≈ 13.7 µM)
Activity [10]: 2.1%
Activity [11]: 3.3%
MIC [12]: 1.05 µg/mL (≈ 1.79 µM)
MIC90 [12]: 4 µg/mL (≈ 6.83 µM)
MIC [13]: 1.59 µg/mL (≈ 2.71 µM)
MIC90 [13]: 8 µg/mL (≈ 13.7 µM)
MIC [14]: 1.57 µg/mL (≈ 2.68 µM)
MIC90 [14]: 8 µg/mL (≈ 13.7 µM)
MIC [15]: 2.09 µg/mL (≈ 3.57 µM)
MIC90 [15]: 8 µg/mL (≈ 13.7 µM)
Activity [16]: 7.2%
Activity [17]: 3.4%
Activity [18]: 3.6%
Activity [19]: 1.6%
MIC [20]: 1.51 µg/mL (≈ 2.58 µM)
MIC90 [20]: 8 µg/mL (≈ 13.7 µM)

C[C@@H](O)[C@H]1C(=O)N2C(C(=O)O)=C(SCCNC=N)C[C@H]12 [IMIPENEM ANHYDROUS]
MIC [1]: 0.35 µg/mL (≈ 1.17 µM)
MIC90 [1]: 1 µg/mL (≈ 3.34 µM)
Activity [2]: 0%
MIC [3]: 0.39 µg/mL (≈ 1.3 µM)
MIC90 [3]: 1 µg/mL (≈ 3.34 µM)
MIC [4]: 0.35 µg/mL (≈ 1.17 µM)
MIC90 [4]: 1 µg/mL (≈ 3.34 µM)
Activity [5]: 0%
MIC [6]: 0.43 µg/mL (≈ 1.44 µM)
MIC90 [6]: 1 µg/mL (≈ 3.34 µM)
Activity [7]: 0.5%
Activity [8]: 0%
MIC [9]: 0.35 µg/mL (≈ 1.17 µM)
MIC90 [9]: 1 µg/mL (≈ 3.34 µM)
Activity [10]: 0.4%
Activity [11]: 0.2%
MIC [12]: 0.5 µg/mL (≈ 1.67 µM)
MIC90 [12]: 1 µg/mL (≈ 3.34 µM)
MIC [13]: 0.31 µg/mL (≈ 1.04 µM)
MIC90 [13]: 1 µg/mL (≈ 3.34 µM)
MIC [14]: 0.45 µg/mL (≈ 1.5 µM)
MIC90 [14]: 1 µg/mL (≈ 3.34 µM)
MIC [15]: 0.95 µg/mL (≈ 3.17 µM)
MIC90 [15]: 2 µg/mL (≈ 6.68 µM)
Activity [16]: 0%
Activity [17]: 0.5%
Activity [18]: 0.2%
Activity [19]: 0.3%
MIC [20]: 0.35 µg/mL (≈ 1.17 µM)
MIC90 [20]: 1 µg/mL (≈ 3.34 µM)
